Measured values as given in ChEMBL document CHEMBL1148621, “Evaluation of carbon-11-labeled 2beta-carbomethoxy-3beta-[4'-((Z)-2-iodoethenyl)phenyl]nortropane as a potential radioligand for imaging the serotonin transporter by PET” (J Med Chem, 2006).
pKi: −log10 of the molar value.

Tests used:
[1] = molecular target: Sodium-dependent noradrenaline transporter (Homo sapiens, UniProt P23975); assay: Displacement of [3H]nisoxetine from NET
[2] = molecular target: Sodium-dependent dopamine transporter (Homo sapiens, UniProt Q01959); assay: Displacement of [123I]RTI-55 from DAT
Sodium-dependent dopamine transporter, sequence (Q01959 whole entry): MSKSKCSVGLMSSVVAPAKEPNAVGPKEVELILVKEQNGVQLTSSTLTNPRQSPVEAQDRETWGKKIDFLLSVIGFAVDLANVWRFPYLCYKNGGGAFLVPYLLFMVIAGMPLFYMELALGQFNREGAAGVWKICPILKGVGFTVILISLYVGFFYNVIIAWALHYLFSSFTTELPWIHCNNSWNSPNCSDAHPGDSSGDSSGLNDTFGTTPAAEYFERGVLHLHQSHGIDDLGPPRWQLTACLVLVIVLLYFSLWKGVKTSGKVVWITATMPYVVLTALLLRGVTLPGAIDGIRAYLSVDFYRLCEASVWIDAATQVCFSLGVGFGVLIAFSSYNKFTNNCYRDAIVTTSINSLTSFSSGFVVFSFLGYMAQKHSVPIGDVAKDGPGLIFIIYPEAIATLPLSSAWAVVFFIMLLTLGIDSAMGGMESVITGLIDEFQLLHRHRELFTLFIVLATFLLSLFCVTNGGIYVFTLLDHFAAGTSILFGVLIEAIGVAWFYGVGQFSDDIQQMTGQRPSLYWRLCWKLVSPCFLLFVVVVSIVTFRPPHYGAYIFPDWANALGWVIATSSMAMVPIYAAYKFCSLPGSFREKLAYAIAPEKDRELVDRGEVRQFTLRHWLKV

Sodium-dependent noradrenaline transporter, sequence (P23975 whole entry): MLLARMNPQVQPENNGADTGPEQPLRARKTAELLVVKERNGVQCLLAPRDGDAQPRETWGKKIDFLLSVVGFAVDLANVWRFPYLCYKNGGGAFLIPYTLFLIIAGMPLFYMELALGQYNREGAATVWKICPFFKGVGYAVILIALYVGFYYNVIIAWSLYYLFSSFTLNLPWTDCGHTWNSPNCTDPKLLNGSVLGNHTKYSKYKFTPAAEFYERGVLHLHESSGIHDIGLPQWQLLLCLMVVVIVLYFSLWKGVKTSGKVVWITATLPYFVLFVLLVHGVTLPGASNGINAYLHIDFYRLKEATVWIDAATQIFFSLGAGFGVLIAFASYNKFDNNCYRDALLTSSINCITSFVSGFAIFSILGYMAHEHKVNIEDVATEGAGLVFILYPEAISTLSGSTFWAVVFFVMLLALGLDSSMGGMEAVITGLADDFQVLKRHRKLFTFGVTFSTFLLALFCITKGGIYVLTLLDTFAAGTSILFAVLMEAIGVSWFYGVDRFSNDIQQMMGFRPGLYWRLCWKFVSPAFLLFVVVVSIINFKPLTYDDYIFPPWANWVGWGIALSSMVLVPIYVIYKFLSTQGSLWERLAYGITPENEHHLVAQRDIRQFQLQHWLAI

COC(=O)C1C2CCC(CC1c1ccc(/C=C\I)cc1)N2 (configuration not stated)
pKi [1]: 7.82 | pKi [2]: 8.22
